Where two headings read alike, the source gives them in different places.
Target: CFTR (Homo sapiens, UniProt P13569)
Assay: Membrane potential dye, Enteroid Assay B
Assay type: cell-based
Conditions: for EC50: read-out: Ent. B EC50; for Ent. B Max Activity: chloride transport as % of triple combination control (Enteroid Assay B)
Experimental: Base medium (ADF+++) consisted of Advanced DMEM/Ham's F12, 2 mM Glutamax, 10 mM HEPES, […] penicillin/streptomycin.
Intestinal enteroid maintenance medium (IEMM) consisted of ADF+++, 1× B27 supplement, 1× N2 supplement, 1.25 mM N-acetyl cysteine, 10 mM Nicotinamide, 50 ng/mL hEGF, 10 nM Gastrin, 1 μg/mL hR-spondin-1, 100 ng/mL hNoggin, TGF-b type 1 inhibitor A-83-01, 100 μg/mL Primocin, 10 μM P38 MAPK inhibitor SB202190.
Bath 1 Buffer consisted of 1 mM MgCl2, 160 mM NaCl, 4.5 mM KCl, 10 mM HEPES, 10 mM Glucose, 2 mM CaCl2).
Chloride Free Buffer consisted of 1 mM Magnesium Gluconate, 2 mM Calcium Gluconate, 4.5 mM Potassium Gluconate, 160 mM Sodium Gluconate, 10 mM HEPES, 10 mM Glucose.
BathI Dye Solution consisted of Bath 1 Buffer, 0.04% Pluronic F127, 20 μM Methyl Oxonol, 30 μM CaCCinh-A01, 30 μM Chicago Sky Blue.
Chloride Free Dye Solution consisted of Chloride Free Buffer, 0.04% Pluronic F127, 20 μM Methyl Oxonol, 30 μM CaCCinh-A01, 30 μM Chicago Sky Blue.
Chloride Free Dye Stimulation Solution consisted of Chloride Free Dye Solution, 10 μM forskolin, 100 μM IBMX, and 300 nM Compound III.
Human intestinal epithelial enteroid cells were obtained from the Hubrecht Institute for Developmental Biology and Stem Cell Research, Utrecht, The Netherlands and expanded in T-Flasks as previously described (Dekkers J F, Wiegerinck C L, de Jonge H R, Bronsveld I, Janssens H M, de Winter-de Groot K M, Brandsma A M, de Jong N W M, Bijvelds M J C, Scholte B J, Nieuwenhuis E E S, van den Brink S, Clevers H, van der Ent C K, Middendorp S and M Beekman J M. A functional CFTR assay using primary cystic fibrosis intestinal organoids. Nat Med. 2013 July;19(7):939-45.).
3. Enteroid Cell Harvesting and Seeding
Cells were recovered in cell recovery solution, collected by centrifugation at 650 rpm for 5 min at 4° C., resuspended in TrypLE and incubated for 5 min at 37° C. Cells were then collected by centrifugation at 650 rpm for 5 min at 4° C. and resuspended in IEMM containing 10 μM ROCK inhibitor (RI). The cell suspension was passed through a 40 μm cell strainer and resuspended at 1×10^6 cells/mL in IEMM containing 10 μM RI. Cells were seeded at 5000 cells/well into multi-well plates and incubated for overnight at 37° C., 95% humidity and 5% CO2 prior to assay.
5. Membrane Potential Dye, Enteroid Assay B
Enteroid cells were incubated with test compound in IEMM for 18-24 hours at 37° C., 95% humidity and 5% CO2. […] Briefly, cells were washed 5 times in Bath 1 Buffer. Bath 1 Dye Solution was added and the cells were incubated for 25 min at room temperature. Following dye incubation, cells were washed 3 times in Chloride Free Dye Solution. Chloride transport was initiated by addition of Chloride Free Dye Stimulation Solution and the fluorescence signal was read for 15 min. […] Chloride transport was then expressed as a percentage of the chloride transport following treatment with 1 μM (14S)-8-[3-(2-{Dispiro[2.0.2.1]heptan-7-yl}ethoxy)-1H-pyrazol-1-yl]-12,12-dimethyl-2λ^6-thia-3,9,11,18,23-pentaazatetracyclo[17.3.1.111,14.05,10]tetracosa-1(22),5,7,9,19(23),20-hexaene-2,2,4-trione, 3 μM (R)-1-(2,2-difluorobenzo[d][1,3]dioxol-5-yl)-N-(1-(2,3-dihydroxypropyl)-6-fluoro-2-(1-hydroxy-2-methylpropan-2-yl)-1H-indol-5-yl)cyclopropanecarboxamide and 300 nM acute N-[2,4-bis(1,1-dimethylethyl)-5-hydroxyphenyl]-1,4-dihydro-4-oxoquinoline-3-carboxamide triple combination control (% Activity).

[1] = Table 8, human enteroid cells, 18-24 hours, acute 10 μM forskolin and 300 nM ivacaftor
[2] = Table 7, human enteroid cells, 18-24 hours, acute 10 μM forskolin and 300 nM ivacaftor

Sequence of CFTR (P13569 with tags, fused parts or gaps DEL508-508): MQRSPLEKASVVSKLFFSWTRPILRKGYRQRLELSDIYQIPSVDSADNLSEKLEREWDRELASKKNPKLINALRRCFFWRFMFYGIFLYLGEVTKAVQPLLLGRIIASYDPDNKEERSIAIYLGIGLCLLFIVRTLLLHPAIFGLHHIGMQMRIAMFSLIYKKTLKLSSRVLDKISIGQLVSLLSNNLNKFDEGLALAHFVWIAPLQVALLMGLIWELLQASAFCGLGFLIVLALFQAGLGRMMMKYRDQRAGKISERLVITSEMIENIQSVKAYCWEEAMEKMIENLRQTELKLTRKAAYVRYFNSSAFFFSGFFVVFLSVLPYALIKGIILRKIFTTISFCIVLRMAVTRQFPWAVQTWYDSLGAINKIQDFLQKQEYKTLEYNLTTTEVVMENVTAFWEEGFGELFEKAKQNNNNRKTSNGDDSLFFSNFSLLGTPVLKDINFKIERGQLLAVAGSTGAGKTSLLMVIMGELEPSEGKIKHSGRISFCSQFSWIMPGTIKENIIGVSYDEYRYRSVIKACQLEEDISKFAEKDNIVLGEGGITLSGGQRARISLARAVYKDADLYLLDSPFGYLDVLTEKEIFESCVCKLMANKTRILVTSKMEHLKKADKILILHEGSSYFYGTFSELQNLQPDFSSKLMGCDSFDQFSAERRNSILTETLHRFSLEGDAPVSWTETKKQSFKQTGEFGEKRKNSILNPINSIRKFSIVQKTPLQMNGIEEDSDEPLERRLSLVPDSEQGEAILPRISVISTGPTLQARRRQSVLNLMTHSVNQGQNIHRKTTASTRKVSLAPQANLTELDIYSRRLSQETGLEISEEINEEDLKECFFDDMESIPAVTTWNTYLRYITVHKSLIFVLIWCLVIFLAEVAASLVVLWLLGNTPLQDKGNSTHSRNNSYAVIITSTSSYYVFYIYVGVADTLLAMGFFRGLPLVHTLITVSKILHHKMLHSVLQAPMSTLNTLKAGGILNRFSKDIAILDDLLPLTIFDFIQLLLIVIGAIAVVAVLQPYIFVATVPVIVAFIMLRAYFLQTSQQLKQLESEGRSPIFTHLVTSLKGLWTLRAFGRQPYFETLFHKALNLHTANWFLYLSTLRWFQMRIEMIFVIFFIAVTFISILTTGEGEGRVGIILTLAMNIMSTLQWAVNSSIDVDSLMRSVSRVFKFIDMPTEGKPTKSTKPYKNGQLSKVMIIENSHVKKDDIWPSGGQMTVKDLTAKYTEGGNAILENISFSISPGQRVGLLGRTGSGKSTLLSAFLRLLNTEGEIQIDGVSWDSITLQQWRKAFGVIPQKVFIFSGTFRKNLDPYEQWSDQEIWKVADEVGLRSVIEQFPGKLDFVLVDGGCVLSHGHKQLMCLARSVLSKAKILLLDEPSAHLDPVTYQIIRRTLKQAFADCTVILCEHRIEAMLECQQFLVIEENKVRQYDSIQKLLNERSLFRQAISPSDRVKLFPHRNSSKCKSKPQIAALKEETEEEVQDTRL

Cc1cccc(C)c1-c1cc2nc(n1)NS(=O)(=O)c1cccc(c1)C(=O)N(CCS(C)(=O)=O)[C@H](CC(C)C)CO2 [Compound 388]
Ent. B Max Activity (%) (Table 9): +++ (+++ is >600%)
EC50 (Table 9): < 1000 nM

Cc1cccc(C)c1-c1cc2nc(n1)NS(=O)(=O)c1cccc(c1)C(=O)N(CCCS(C)(=O)=O)[C@H](CC(C)C)CO2 [Compound 389]
Ent. B Max Activity (%) (Table 9): +++ (+++ is >600%)
EC50 (Table 9): < 1000 nM

Cc1cccc(C)c1-c1cc2nc(n1)NS(=O)(=O)c1cccc(c1)C(=O)N(Cc1ncccc1N)[C@H](CC(C)(C)C)CO2 [Compound 390]
Ent. B Max Activity (%) (Table 9): +++ (+++ is >600%)
EC50 (Table 9): < 1000 nM

CC(=O)Nc1cccc(CN2C(=O)c3cccc(c3)S(=O)(=O)Nc3nc(cc(-c4c(C)cccc4C)n3)OC[C@H]2CC(C)(C)C)n1 [Compound 391]
Ent. B Max Activity (%) (Table 9): +++ (+++ is >600%)
EC50 (Table 9): < 1000 nM

Cc1cccc(C)c1-c1cc2nc(n1)NS(=O)(=O)c1cccc(c1)C(=O)N(Cc1ncccc1NC(=O)OC(C)C)[C@H](CC(C)(C)C)CO2 [Compound 392]
Ent. B Max Activity (%) (Table 9): +++ (+++ is >600%)
EC50 (Table 9): < 1000 nM

CC(=O)Nc1cccnc1CN1C(=O)c2cccc(c2)S(=O)(=O)Nc2nc(cc(-c3c(C)cccc3C)n2)OC[C@H]1CC(C)(C)C [Compound 393]
Ent. B Max Activity (%) (Table 9): +++ (+++ is >600%)
EC50 (Table 9): < 1000 nM

Cc1cccc(C)c1-c1cc2nc(n1)NS(=O)(=O)c1cccc(c1)C(=O)N(CCc1ccc(C(=O)N(C)C)cc1)[C@H](CC(C)(C)C)CO2 [Compound 394]
Ent. B Max Activity (Table 8): +++ (+++ is >60%)
EC50 [1]: < 1000 nM

CNC(=O)c1ccc(CCN2C(=O)c3cccc(c3)S(=O)(=O)Nc3nc(cc(-c4c(C)cccc4C)n3)OC[C@H]2CC(C)(C)C)cc1 [Compound 395]
Ent. B Max Activity (Table 8): ++ (++ is 30-60%)
EC50 [1]: < 1000 nM

Cc1cccc(C)c1-c1cc2nc(n1)NS(=O)(=O)c1cccc(c1)C(=O)N(CCc1ccc(C(N)=O)cc1)[C@H](CC(C)(C)C)CO2 [Compound 396]
Ent. B Max Activity (Table 8): ++ (++ is 30-60%)
EC50 [1]: < 1000 nM

CNC(=O)c1ccc(CN2C(=O)c3cccc(c3)S(=O)(=O)Nc3nc(cc(-c4c(C)cccc4C)n3)OC[C@H]2CC(C)(C)C)nc1 [Compound 397]
Ent. B Max Activity (Table 8): +++ (+++ is >60%)
EC50 [1]: < 1000 nM

Cc1cccc(C)c1-c1cc2nc(n1)NS(=O)(=O)c1cccc(c1)C(=O)N(Cc1ccc(C(N)=O)cn1)[C@H](CC(C)(C)C)CO2 [Compound 398]
Ent. B Max Activity (Table 8): +++ (+++ is >60%)
EC50 [1]: < 1000 nM

Cc1cccc(C)c1-c1cc2nc(n1)NS(=O)(=O)c1cccc(c1)C(=O)N(CC(C)(C)C)[C@H](CC(C)(C)C)CO2 [Compound 399]
Ent. B Max Activity (%) (Table 9): +++ (+++ is >600%)
EC50 (Table 9): < 1000 nM

Cc1cccc(C)c1-c1cc2nc(n1)NS(=O)(=O)c1cccc(c1)C(=O)N(CC(C)(C)C)[C@H](CC(C)C)CO2 [Compound 400]
Ent. B Max Activity (Table 8): ++ (++ is 30-60%)
EC50 [1]: < 1000 nM

Cc1cccc(C)c1-c1cc2nc(n1)NS(=O)(=O)c1cccc(c1)C(=O)N(Cc1ccc(NC(=O)OC(C)C)nc1)[C@H](CC(C)(C)C)CO2 [Compound 401]
Ent. B Max Activity (Table 8): +++ (+++ is >60%)
EC50 [1]: < 1000 nM

COC(=O)Nc1ccc(CN2C(=O)c3cccc(c3)S(=O)(=O)Nc3nc(cc(-c4c(C)cccc4C)n3)OC[C@H]2CC(C)(C)C)cn1 [Compound 402]
Ent. B Max Activity (Table 8): +++ (+++ is >60%)
EC50 [1]: < 1000 nM

COC(=O)N1CCn2ncc(CN3C(=O)c4cccc(c4)S(=O)(=O)Nc4nc(cc(-c5c(C)cccc5C)n4)OC[C@H]3CC(C)(C)C)c2C1 [Compound 403]
Ent. B Max Activity (Table 8): +++ (+++ is >60%)
EC50 [1]: < 1000 nM

CC(=O)NCCCN1C(=O)c2cccc(c2)S(=O)(=O)Nc2nc(cc(-c3c(C)cccc3C)n2)OC[C@H]1CC(C)C [Compound 404]
Ent. B Max Activity (Table 8): +++ (+++ is >60%)
EC50 [1]: < 1000 nM

CC(=O)N(C)CCN1C(=O)c2cccc(c2)S(=O)(=O)Nc2nc(cc(-c3c(C)cccc3C)n2)OC[C@H]1CC(C)C [Compound 405]
Ent. B Max Activity (Table 8): +++ (+++ is >60%)
EC50 [1]: < 1000 nM

CNC(=O)CCCN1C(=O)c2cccc(c2)S(=O)(=O)Nc2nc(cc(-c3c(C)cccc3C)n2)OC[C@H]1CC(C)C [Compound 406]
Ent. B Max Activity (Table 8): +++ (+++ is >60%)
EC50 [1]: 1000 to 3000 nM

Cc1cccc(C)c1-c1cc2nc(n1)NS(=O)(=O)c1cccc(c1)C(=O)N(CCCC(N)=O)[C@H](CC(C)C)CO2 [Compound 407]
Ent. B Max Activity (Table 7): +++ (+++ is >60%)
EC50 [2]: 1000 to 3000 nM

Cc1cccc(C)c1-c1cc2nc(n1)NS(=O)(=O)c1cccc(c1)C(=O)N(CCCNC(=O)OC(C)C)[C@H](CC(C)C)CO2 [Compound 408]
Ent. B Max Activity (Table 7): +++ (+++ is >60%)
EC50 [2]: < 1000 nM

COC(=O)NCCCN1C(=O)c2cccc(c2)S(=O)(=O)Nc2nc(cc(-c3c(C)cccc3C)n2)OC[C@H]1CC(C)C [Compound 409]
Ent. B Max Activity (Table 7): +++ (+++ is >60%)
EC50 [2]: < 1000 nM

COC(=O)N(C)CCN1C(=O)c2cccc(c2)S(=O)(=O)Nc2nc(cc(-c3c(C)cccc3C)n2)OC[C@H]1CC(C)C [Compound 410]
Ent. B Max Activity (Table 7): +++ (+++ is >60%)
EC50 [2]: < 1000 nM

Cc1cccc(C)c1-c1cc2nc(n1)NS(=O)(=O)c1cccc(c1)C(=O)N(CCCN(C)C)[C@H](CC(C)C)CO2 [Compound 411]
Ent. B Max Activity (Table 7): +++ (+++ is >60%)
EC50 [2]: < 1000 nM

Cc1cccc(C)c1-c1cc2nc(n1)NS(=O)(=O)c1cccc(c1)C(=O)N(CCN(C)C)[C@H](CC(C)C)CO2 [Compound 412]
Ent. B Max Activity (Table 7): +++ (+++ is >60%)
EC50 [2]: < 1000 nM

COC(=O)Nc1cccc(CN2C(=O)c3cccc(c3)S(=O)(=O)Nc3nc(cc(-c4c(C)cccc4C)n3)OC[C@H]2CC(C)(C)C)c1 [Compound 506]
Ent. B Max Activity (Table 8): +++ (+++ is >60%)
EC50 [1]: < 1000 nM

Cc1cccc(C)c1-c1cc2nc(n1)NS(=O)(=O)c1cccc(c1)C(=O)N(Cc1cccc(NC(=O)OC(C)C)c1)[C@H](CC(C)(C)C)CO2 [Compound 507]
Ent. B Max Activity (Table 8): +++ (+++ is >60%)
EC50 [1]: < 1000 nM

Cc1cccc(C)c1-c1cc2nc(n1)NS(=O)(=O)c1cccc(c1)C(=O)N(Cc1ccc(NC(=O)OC(C)C)cc1)[C@H](CC(C)(C)C)CO2 [Compound 508]
Ent. B Max Activity (Table 8): +++ (+++ is >60%)
EC50 [1]: < 1000 nM

Cc1cccc(C)c1-c1cc2nc(n1)NS(=O)(=O)c1cccc(c1)C(=O)N(Cc1ncccn1)[C@H](CC(C)(C)O)CO2 [Compound 658]
Ent. B Max Activity (Table 8): +++ (+++ is >60%)
EC50 [1]: 1000 to 3000 nM

Cc1cccc(C)c1-c1cc2nc(n1)NS(=O)(=O)c1cccc(c1)C(=O)N(Cc1ncccn1)[C@H](CCC(C)(C)O)CO2 [Compound 659]
Ent. B Max Activity (Table 8): ++ (++ is 30-60%)
EC50 [1]: 1000 to 3000 nM

Cc1cccc(C)c1-c1cc2nc(n1)NS(=O)(=O)c1cccc(c1)C(=O)N(CCCC(C)(C)O)[C@H](CCC(C)(C)O)CO2 [Compound 660]
Ent. B Max Activity (Table 8): + (+ is <30%)

Cc1cccc(C)c1-c1cc2nc(n1)NS(=O)(=O)c1cccc(c1)C(=O)N(Cc1ccc(C(C)(C)O)cc1)[C@H](CCC(C)(C)O)CO2 [Compound 661]
Ent. B Max Activity (Table 8): ++ (++ is 30-60%)
EC50 [1]: 1000 to 3000 nM

Cc1cccc(C)c1-c1cc2nc(n1)NS(=O)(=O)c1cccc(c1)C(=O)N(CCCC(C)(C)O)[C@H](CC(C)(C)O)CO2 [Compound 662]
Ent. B Max Activity (Table 8): + (+ is <30%)
EC50 [1]: 1000 to 3000 nM
